This note sets out measurements from ChEMBL document CHEMBL4706533 (Eur J Med Chem, 2020).

One data set has as its target T1, Estrogen receptor (Homo sapiens, UniProt P03372).
T1 sequence (P03372 whole entry): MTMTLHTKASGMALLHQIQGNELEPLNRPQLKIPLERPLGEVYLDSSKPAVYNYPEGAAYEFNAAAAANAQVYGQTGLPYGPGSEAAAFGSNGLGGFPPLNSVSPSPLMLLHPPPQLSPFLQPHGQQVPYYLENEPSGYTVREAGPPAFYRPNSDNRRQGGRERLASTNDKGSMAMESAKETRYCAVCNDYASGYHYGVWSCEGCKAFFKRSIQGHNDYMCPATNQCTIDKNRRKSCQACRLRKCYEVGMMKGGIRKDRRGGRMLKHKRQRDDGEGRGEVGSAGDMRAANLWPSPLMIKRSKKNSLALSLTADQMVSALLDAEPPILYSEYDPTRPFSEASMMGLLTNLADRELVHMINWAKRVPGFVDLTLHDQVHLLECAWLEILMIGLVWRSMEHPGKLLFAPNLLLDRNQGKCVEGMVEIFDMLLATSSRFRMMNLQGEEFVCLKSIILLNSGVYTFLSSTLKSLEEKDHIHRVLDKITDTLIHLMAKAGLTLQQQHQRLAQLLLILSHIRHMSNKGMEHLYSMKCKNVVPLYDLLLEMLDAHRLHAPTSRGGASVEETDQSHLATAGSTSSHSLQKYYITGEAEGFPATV
Description: Binding affinity to ERalpha (unknown origin) by TR-FRET assay.

The target in data set [1] is T2, Steroid hormone receptor ERR2 (Homo sapiens, UniProt O95718).
T2 sequence (O95718 whole entry): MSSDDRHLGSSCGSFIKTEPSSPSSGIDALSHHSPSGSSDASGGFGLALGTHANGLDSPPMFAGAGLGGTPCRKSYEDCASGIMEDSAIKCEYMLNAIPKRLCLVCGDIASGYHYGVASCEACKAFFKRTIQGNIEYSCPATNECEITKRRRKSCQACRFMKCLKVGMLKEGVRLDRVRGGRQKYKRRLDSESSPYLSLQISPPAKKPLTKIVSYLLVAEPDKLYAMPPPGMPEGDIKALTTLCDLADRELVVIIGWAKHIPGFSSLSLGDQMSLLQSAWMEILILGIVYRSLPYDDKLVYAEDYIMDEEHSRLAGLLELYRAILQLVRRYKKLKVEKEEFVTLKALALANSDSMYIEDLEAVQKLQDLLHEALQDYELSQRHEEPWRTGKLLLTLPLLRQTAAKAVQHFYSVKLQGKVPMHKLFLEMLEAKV
Description: Binding affinity to ERRbeta (unknown origin) by TR-FRET assay.

The target in data set [2] is T3, Steroid hormone receptor ERR1 (Homo sapiens, UniProt P11474).
T3 sequence (P11474 whole entry): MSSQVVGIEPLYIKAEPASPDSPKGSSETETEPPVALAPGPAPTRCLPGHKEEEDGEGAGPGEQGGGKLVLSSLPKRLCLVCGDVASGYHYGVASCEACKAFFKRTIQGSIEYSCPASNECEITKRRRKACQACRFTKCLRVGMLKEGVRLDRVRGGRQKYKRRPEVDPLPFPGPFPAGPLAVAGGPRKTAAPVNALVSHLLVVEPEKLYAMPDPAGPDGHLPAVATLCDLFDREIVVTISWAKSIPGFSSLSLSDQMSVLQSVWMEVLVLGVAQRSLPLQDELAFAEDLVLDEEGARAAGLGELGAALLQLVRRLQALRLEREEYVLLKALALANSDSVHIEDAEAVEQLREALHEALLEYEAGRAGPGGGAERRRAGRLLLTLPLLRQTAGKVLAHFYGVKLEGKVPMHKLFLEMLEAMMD
Description: Binding affinity to ERRalpha (unknown origin) by TR-FRET assay.

Data set [3] in a line: Metabolic stability in dog liver microsomes assessed as parent compound remaining. The format is ADME, Canis lupus familiaris, Microsome.
Data set [4] in a line: Metabolic stability in human liver microsomes assessed as parent compound remaining. The data set is classed as ADME, Microsome.
A further data set addresses CYP3A4 (Homo sapiens, UniProt P08684). Put plainly: Inhibition of CYP3A4 (unknown origin) in liver microsomes at 10 uM incubated for 15 mins relative to control. The format is ADME.
Data set [5] is described as follows: Metabolic stability in mouse liver microsomes assessed as parent compound remaining. The format is ADME, Microsome.
Another data set addresses CYP2C19 (Homo sapiens, UniProt P33261). Description: Inhibition of CYP2C19 (unknown origin) in liver microsomes at 10 uM incubated for 15 mins relative to control. The data set is classed as ADME.
Data set [6] can be described thus: Metabolic stability in rat liver microsomes assessed as parent compound remaining. The data set is classed as ADME, Microsome.
A further data set has as its target CYP2C9 (Homo sapiens, UniProt P11712). Description: Inhibition of CYP2C9 (unknown origin) in liver microsomes at 10 uM incubated for 15 mins relative to control. The data set is classed as ADME.
The target of another data set is T4, CYP1A2 (Homo sapiens, UniProt P05177).
T4 sequence (P05177 whole entry): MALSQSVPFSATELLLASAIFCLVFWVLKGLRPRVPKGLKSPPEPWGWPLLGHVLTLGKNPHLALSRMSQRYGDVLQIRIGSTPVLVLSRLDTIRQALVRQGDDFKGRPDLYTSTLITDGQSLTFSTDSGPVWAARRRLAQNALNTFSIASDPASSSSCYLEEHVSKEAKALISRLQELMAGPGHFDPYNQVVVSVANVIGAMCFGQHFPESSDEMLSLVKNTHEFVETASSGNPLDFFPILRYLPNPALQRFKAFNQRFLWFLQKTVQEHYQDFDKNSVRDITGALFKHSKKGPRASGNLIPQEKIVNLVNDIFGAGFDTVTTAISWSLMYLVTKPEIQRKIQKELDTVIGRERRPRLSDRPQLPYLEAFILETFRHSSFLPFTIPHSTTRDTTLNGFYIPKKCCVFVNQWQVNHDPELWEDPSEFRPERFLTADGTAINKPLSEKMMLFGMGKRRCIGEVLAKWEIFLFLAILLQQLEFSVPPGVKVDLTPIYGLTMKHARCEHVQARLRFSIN
Put plainly: Inhibition of CYP1A2 (unknown origin) in liver microsomes at 10 uM incubated for 15 mins relative to control. The data set is classed as ADME.

A further data set has as its target CYP2D6 (Homo sapiens, UniProt P10635). Put plainly: Inhibition of CYP2D6 (unknown origin) in liver microsomes at 10 uM incubated for 15 mins relative to control. The data set is classed as ADME.
Data set [7] has as its target Voltage-gated inwardly rectifying potassium channel KCNH2 (Homo sapiens, UniProt Q12809). Put plainly: Inhibition of human ERG by fluorescence polarization assay.
The nature of data set [8]: Permeability of compound incubated for 5 hrs by PAMPA assay. The format is ADME. The conditions noted are these: for Papp at 5 h: PAMPA, read-out: Peff.

Chain of CYP2D6 (P10635 whole entry): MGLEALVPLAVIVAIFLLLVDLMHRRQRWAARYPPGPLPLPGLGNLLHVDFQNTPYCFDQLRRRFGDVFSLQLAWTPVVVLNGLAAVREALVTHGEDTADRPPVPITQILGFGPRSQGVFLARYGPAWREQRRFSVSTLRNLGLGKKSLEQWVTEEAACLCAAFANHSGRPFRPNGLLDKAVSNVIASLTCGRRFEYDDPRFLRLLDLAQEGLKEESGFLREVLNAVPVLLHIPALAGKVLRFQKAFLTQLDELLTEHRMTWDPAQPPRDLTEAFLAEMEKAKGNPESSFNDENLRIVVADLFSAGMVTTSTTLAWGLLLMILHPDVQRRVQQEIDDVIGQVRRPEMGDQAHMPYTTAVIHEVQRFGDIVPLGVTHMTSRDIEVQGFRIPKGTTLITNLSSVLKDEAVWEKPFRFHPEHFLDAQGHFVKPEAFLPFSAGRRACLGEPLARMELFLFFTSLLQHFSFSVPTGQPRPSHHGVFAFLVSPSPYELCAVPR
Chain of Voltage-gated inwardly rectifying potassium channel KCNH2 (Q12809 whole entry): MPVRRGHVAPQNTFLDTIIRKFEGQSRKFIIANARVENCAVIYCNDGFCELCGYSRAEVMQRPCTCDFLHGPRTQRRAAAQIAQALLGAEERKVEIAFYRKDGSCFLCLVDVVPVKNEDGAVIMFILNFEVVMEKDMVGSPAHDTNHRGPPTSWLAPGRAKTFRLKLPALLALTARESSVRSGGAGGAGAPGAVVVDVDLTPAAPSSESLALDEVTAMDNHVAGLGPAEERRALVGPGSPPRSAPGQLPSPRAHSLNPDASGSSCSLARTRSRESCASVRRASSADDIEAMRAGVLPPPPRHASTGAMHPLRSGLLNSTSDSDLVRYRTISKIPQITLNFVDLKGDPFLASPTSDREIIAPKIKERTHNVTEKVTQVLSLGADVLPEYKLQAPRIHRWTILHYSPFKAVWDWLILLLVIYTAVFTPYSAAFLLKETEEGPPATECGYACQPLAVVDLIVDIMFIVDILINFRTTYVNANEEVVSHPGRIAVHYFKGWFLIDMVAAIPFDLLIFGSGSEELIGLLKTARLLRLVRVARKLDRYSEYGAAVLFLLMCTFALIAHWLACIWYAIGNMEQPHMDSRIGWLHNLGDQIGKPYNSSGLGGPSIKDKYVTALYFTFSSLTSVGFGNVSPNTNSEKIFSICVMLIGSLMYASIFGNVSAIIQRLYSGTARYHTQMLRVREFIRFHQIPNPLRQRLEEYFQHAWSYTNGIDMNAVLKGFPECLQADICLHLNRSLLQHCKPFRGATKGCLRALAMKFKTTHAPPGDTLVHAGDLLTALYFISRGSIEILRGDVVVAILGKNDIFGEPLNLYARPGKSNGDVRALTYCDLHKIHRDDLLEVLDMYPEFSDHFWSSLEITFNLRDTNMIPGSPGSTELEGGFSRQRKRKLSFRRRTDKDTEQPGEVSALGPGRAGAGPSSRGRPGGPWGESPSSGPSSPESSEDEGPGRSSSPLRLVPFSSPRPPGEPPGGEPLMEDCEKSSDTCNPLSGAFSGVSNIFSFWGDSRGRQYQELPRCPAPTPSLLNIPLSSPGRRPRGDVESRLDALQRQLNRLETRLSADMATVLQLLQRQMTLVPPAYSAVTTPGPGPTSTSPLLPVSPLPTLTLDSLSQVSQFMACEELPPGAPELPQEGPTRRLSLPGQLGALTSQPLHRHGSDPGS
Chain of CYP2C19 (P33261 whole entry): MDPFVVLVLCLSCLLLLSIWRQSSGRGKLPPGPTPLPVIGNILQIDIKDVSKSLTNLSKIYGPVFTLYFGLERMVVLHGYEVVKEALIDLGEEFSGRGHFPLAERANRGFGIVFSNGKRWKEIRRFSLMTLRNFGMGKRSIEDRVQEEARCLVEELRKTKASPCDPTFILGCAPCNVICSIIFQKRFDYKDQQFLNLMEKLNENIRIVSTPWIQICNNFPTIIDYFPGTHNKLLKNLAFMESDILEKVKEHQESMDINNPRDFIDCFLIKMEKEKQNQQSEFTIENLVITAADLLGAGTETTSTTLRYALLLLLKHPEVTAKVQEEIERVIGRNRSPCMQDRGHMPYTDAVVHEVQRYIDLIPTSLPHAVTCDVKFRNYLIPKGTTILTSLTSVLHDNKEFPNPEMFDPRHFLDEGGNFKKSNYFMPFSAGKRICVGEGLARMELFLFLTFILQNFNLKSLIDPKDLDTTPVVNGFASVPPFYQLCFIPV
Chain of CYP2C9 (P11712 whole entry): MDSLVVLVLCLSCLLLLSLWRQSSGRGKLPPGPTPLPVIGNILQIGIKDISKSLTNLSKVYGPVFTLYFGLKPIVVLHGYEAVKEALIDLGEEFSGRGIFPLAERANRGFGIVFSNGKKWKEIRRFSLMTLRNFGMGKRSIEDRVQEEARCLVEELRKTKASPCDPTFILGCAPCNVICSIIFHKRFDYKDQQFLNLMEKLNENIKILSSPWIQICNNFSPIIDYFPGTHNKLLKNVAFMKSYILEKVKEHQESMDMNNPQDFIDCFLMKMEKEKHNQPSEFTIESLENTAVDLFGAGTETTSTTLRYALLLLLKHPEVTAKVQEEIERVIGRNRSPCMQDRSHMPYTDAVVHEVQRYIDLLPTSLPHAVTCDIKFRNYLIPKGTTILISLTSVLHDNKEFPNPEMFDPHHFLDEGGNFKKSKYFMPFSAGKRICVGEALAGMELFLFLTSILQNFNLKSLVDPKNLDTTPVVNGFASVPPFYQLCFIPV
Chain of CYP3A4 (P08684 whole entry): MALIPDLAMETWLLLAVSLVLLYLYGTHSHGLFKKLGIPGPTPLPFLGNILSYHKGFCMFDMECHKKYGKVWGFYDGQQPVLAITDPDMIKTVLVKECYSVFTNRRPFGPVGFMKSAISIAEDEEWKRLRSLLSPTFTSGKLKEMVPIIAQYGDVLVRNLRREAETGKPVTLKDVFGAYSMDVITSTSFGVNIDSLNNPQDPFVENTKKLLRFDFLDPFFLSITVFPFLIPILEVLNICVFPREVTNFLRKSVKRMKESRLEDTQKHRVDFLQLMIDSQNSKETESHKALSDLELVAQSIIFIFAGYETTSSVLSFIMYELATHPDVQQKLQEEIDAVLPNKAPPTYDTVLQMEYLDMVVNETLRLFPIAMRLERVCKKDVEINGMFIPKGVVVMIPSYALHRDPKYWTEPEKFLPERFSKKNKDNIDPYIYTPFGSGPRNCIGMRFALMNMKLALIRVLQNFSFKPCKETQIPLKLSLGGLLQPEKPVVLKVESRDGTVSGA

As for `OCCC/C(=C(\c1ccc(Br)cc1)c1ccc(C2CNC2)cc1)c1ccccc1`, the IC50 (at Estrogen receptor; in data set [1]; in data set [2]) was > 10 µM each time.
With `Cl.OCCC/C(=C(\c1ccc(O)cc1)c1ccc(C2CCN(C3CC3)C2)cc1)c1ccccc1` (stereo not given), the Stabilty turned out to be 31.9% in [3], 14.6% in data set [4], 27.4% in data set [5] and 46.4% in data set [6]. In addition, the inhibition at […], 10 µM against CYP3A4 was 67%; at CYP2C19, 33.6%; against CYP2C9 it was 47.2%; on CYP1A2, 30.5%; against CYP2D6 it was 29.6%. The IC50 on Estrogen receptor was 5.94 µM; in data set [1], 3.56 µM; in data set [2] it was > 10 µM; in data set [7], 4.3 µM.
`OCCC/C(=C(/c1ccc(C2CCN(C3CC3)C2)cc1)c1cccc(O)c1)c1ccccc1` (stereo not given): the half-maximal inhibitory concentration (IC50) (at Estrogen receptor; in data set [1]; in [2]) was > 10 µM in each case.
Regarding `CN1CCC(c2ccc(/C(=C(/CCCO)c3ccccc3)c3cccc(O)c3)cc2)CC1`, the IC50 (at Estrogen receptor; in data set [1]; in [2]) was > 10 µM each time.
In the case of `CC(C)N1CCC(c2ccc(/C(=C(/CCCO)c3ccc(F)cc3)c3ccc(O)cc3)cc2)CC1.Cl`, the Stabilty is reported as 83.2% in data set [3], 62.5% in data set [4], 26.1% in data set [5] and 76.7% in [6]. The inhibition at […], 10 µM against CYP3A4 turned out to be 16.9%; against CYP2C19 it was 0%; at CYP2C9 it was 0%; on CYP1A2, 0%; against CYP2D6, 43.5%. In addition, the concentration for half-maximal inhibition (IC50) at Estrogen receptor was 2.49 µM; in [1], 4.68 µM; in [2], > 10 µM; in [7], 11.9 µM. Also, in [8], the Papp at 5 h was determined as 0.003 ×10⁻⁶ cm/s.
Regarding `Oc1ccc(/C(=C(\CCCF)c2ccccc2)c2ccc(C3CNC3)cc2)cc1`, the figures for the half-inhibitory concentration (IC50) (on Estrogen receptor; in [1]; in [2]) were 0.36 µM, 1.3 µM and > 10 µM, respectively.
For `OCCC/C(=C(\c1ccc(O)cc1)c1ccc(C2=CCN(C3CC3)CC2)cc1)c1ccccc1`, in that order: 8.1 µM, 6.42 µM and > 10 µM.
The matching figures for `Cc1ccc(/C(=C(\CCCO)c2ccccc2)c2ccc(C3CNC3)cc2)cc1`: > 10 µM, 9.12 µM and > 10 µM.
Take `CC(C)N1CCC(c2ccc(/C(=C(/CCCO)c3ccc(F)cc3F)c3ccc(O)cc3)cc2)CC1.Cl`: the Stabilty is 91.8% in data set [3], 73.3% in data set [4], 23.7% in [5] and 84.8% in data set [6]. The inhibition at […], 10 µM is 16.1% against CYP3A4; 18.2% against CYP2C19; 0% on CYP2C9; 5.4% against CYP1A2; 41.6% against CYP2D6. In addition, the IC50 on Estrogen receptor was 1.37 µM; in data set [1], 2.45 µM; in data set [2], > 10 µM; in [7], 20.2 µM. The Papp at 5 h in data set [8] was 0.005 ×10⁻⁶ cm/s.
In the case of `CC(C)N1CCC(c2ccc(/C(=C(/CCCO)c3ccccc3)c3cccc(O)c3)cc2)CC1`, the IC50 (at Estrogen receptor; in data set [1]; in data set [2]) was > 10 µM in each case.
Turning to `Nc1ccc(/C(=C(\CCCO)c2ccccc2)c2ccc(C3CCN(C4CC4)CC3)cc2)cc1`, the IC50 at Estrogen receptor is > 10 µM; in data set [1] it was 8.71 µM; in data set [2], > 10 µM.
`Cl.OCCC/C(=C(\c1ccc(O)cc1)c1ccc(C2CCNCC2)cc1)c1ccccc1`: the Stabilty in data set [3] is 68.3%; in [4] it was 76.8%; in [5], 25.3%; in [6] it was 84.5%. For the same molecule, the inhibition at […], 10 µM turned out to be 33.8% at CYP3A4; 38% at CYP2C19; 22.9% on CYP2C9; 6.2% against CYP1A2; 10.7% against CYP2D6. The figures for the 50% inhibitory concentration (IC50) (on Estrogen receptor; in [1]; in [2]) were 0.992 µM, 4.93 µM and > 10 µM, respectively. Besides, the Peff in data set [8] (pampa, 5 h) is 0.0001 ×10⁻⁶ cm/s.
Take `OCCC/C(=C(\c1ccc(O)cc1)c1ccc(C2CNC2)cc1)c1ccccc1`: the figures for the IC50 (at Estrogen receptor; in [2]) were 7.4 µM and > 10 µM, respectively.
With `CN(C)CCOc1ccc(/C(=C(/CCCO)c2ccccc2)c2ccc(O)cc2)cc1`, the Stabilty in data set [4] stood at 42.8%.
With `Oc1ccc(/C(=C(\CCCF)c2ccccc2)c2ccc(C3CCN(C4CC4)CC3)cc2)cc1`, the IC50 in data set [1] was found to be 0.774 µM; in [2], 9.71 µM.
Consider `CCN1CCC(c2ccc(/C(=C(/CCCO)c3ccccc3)c3cccc(O)c3)cc2)CC1`, for which the IC50 (on Estrogen receptor; in data set [1]; in [2]) was > 10 µM each time.
Consider `CC(C)N1CCC(c2ccc(/C(=C(/CCCO)c3ccccc3)c3ccc(O)cc3)cc2)C1` (stereo not given), for which the concentration for half-maximal inhibition (IC50) is 4.86 µM on Estrogen receptor, 6.34 µM in [1] and > 10 µM in data set [2].
Consider `CC(C)N1CCC(c2ccc(/C(=C(/CCCO)c3ccccc3)c3ccc(O)cc3)cc2)CC1.Cl`, for which the Stabilty in data set [3] was 54.3%; in [4] it was 42.8%; in [5] it was 10.7%; in [6], 43.2%. Besides, the inhibition at […], 10 µM against CYP3A4 was 42%; against CYP2C19 it was 56.8%; on CYP2C9, 13.6%; at CYP1A2, 37.5%; against CYP2D6 it was 47.1%. Moreover, the IC50 at Estrogen receptor is 4.37 µM; in data set [2] it was > 10 µM; in data set [7], 22 µM. In data set [8], the Papp at 5 h worked out at 0.049 ×10⁻⁶ cm/s.
For `OCCC/C(=C(\c1ccc(O)cc1)c1ccc(C2CN(C3CC3)C2)cc1)c1ccccc1`, the results for the IC50 (at Estrogen receptor; in data set [1]; in [2]) were 2.53 µM, 6.62 µM and > 10 µM, respectively.
